Results taken from patent US20220315554A1, “COMPOUNDS COMPRISING A […] LIGAND AND USE THEREOF” (priority 2019, published 2022).
Numbered stars: 1 amine (or outer) side, 2 acyl side, 3 side chain; on linkers, the order of the positions; unused ones are H or OH. Bridge positions count the residues as written; N and C are the ends. Square brackets hold non-standard residues; d marks the D form. Peptide text beside a SMILES is read from it. * marks the point of attachment. X4 = O=C1CN2CCN3CCN(CC(=O)N4CCN(Cc5cc(C[*:1])cc(C[*:2])c5)CC4)CCN(CC2)CC(=O)[O][In]([O]1)[O]C(=O)C3; X11 = O=C(CN1CCN2CCN3CCN(CC1)CC(=O)[O][In]([O]C(=O)C2)[O]C(=O)C3)NCCSCc1cc(CSCCN[*:2])cc(C[*:1])c1; X7 = O=C(CN1CCN2CCN3CCN(CC1)CC(=O)[O][In]([O]C(=O)C2)[O]C(=O)C3)NCCSCc1cc(C[*:1])cc(C[*:2])c1; X1 = O=C(O)CN1CCN(CC(=O)O)CCN(CC(=O)N2CCN(Cc3cc(C[*:1])cc(C[*:2])c3)CC2)CCN(CC(=O)O)CC1; X12 = NCCNCC(CNCCN)C(=O)NCCCOCCOCCOCCCN*; mXylylene = c1cc(C[*:1])cc(C[*:2])c1; Pentanesulfonyl = CCCCCS(=O)(=O)*; Suc = O=C(CCC(=O)[*:2])[*:1]; Nle = CCCC[C@H](N)C(=O)O; Hexanoyl = CCCCCC(=O)*; Sar = CNCC(=O)O

Assays:
[1] = target: T1, FAP-expressing human WI-38 fibroblasts (Homo sapiens, UniProt Q12884); experiment: Competitive FACS binding assay; conditions: pIC50 Category (FACS), competition with 3 nM Cy5-labeled compound, 4° C., 1 hour
T1 construct: FAP-expressing human WI-38 fibroblasts (ECACC) were cultured in EMEM; host or cells: WI-38 human fibroblasts
T1 sequence (Q12884 1-760): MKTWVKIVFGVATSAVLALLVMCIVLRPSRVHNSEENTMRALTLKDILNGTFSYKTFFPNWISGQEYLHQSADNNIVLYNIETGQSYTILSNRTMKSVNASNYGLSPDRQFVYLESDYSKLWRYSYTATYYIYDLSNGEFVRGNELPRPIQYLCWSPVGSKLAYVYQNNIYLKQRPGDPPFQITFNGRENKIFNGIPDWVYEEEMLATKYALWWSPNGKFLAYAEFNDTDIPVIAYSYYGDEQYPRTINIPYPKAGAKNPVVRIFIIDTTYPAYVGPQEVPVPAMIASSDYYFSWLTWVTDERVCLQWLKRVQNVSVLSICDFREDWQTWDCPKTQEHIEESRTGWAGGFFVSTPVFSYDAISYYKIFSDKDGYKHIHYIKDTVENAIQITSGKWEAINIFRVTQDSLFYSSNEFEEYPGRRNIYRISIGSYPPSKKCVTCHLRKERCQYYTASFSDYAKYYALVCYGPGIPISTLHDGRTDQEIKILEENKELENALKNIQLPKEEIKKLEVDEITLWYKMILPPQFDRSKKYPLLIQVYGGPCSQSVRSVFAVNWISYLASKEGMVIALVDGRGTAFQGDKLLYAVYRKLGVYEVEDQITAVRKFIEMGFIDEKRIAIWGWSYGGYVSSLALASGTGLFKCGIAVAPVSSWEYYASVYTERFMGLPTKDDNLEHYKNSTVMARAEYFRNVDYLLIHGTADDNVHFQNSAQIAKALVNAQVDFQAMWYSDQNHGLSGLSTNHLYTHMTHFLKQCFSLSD
Description: Cells were analyzed in an Attune NxT flow cytometer. […]

Human recombinant FAP [2] = target: T2, Human recombinant FAP (Homo sapiens, UniProt Q12884); experiment: Surface plasmon resonance (Biacore) assay; type: binding
T2 sequence (Q12884 1-760): T1 sequence (Q12884 1-760)

Human recombinant FAP [3] = target: T2, Human recombinant FAP; experiment: FRET-based FAP protease activity assay; type: biochemical; parameters: purchased R&D systems 3715-SE; conditions: pIC50 Category (Activity), FRET substrate, 37° C.

SMILES	IC50 [1]	Kd (Human recombinant FAP [2])	IC50 (Human recombinant FAP [3])
CCCCCS(=O)(=O)N[C@H]1CSCc2cc(cc(CN3CCN(C(=O)CN4CCN(CC(=O)O)CCN(CC(=O)O)CCN(CC(=O)O)CC4)CC3)c2)CSC[C@@H](C(=O)N[C@@H](CC(=O)O)C(=O)O)NC(=O)[C@H](Cc2ccccc2)NC(=O)[C@H](CCC(N)=O)NC(=O)[C@H]([C@@H](C)O)NC(=O)[C@@H]2CCCN2C(=O)[C@@H]2CCCN2C1=O [3BP-3692, Pentyl-SO2-[Cys(tMeBn(DOTA-PP))-Pro-Pro-Thr-Gln-Phe-Cys]-Asp-NH2] (Pentanesulfonyl-CPPTQFCD-OH; linker 1-7 via X1)	< 10 nM	< 10 nM	< 10 nM
CCCCCC(=O)N[C@H]1CSCc2cc(CSCCNC(=O)CN3CCN4CCN5CCN(CC3)CC(=O)[O][In]([O]C(=O)C4)[O]C(=O)C5)cc(c2)CSC[C@@H](C(N)=O)NC(=O)[C@H](Cc2ccccc2)NC(=O)[C@H](CCC(N)=O)NC(=O)[C@H]([C@@H](C)O)NC(=O)[C@@H]2CCCN2C(=O)[C@@H]2CCCN2C1=O [3BP-3712, Hex-[Cys(tMeBn(InDOTA-AET))-Pro-Pro-Thr-Gln-Phe-Cys]-NH2]	< 10 nM	< 10 nM	< 10 nM
CCCCCC(=O)N[C@H]1CSCc2cc(CSCCNC(=O)CN3CCN4CCN5CCN(CC3)CC(=O)[O][In]([O]C(=O)C4)[O]C(=O)C5)cc(c2)CSCCNC(=O)[C@H](Cc2ccccc2)NC(=O)[C@H](CCC(N)=O)NC(=O)[C@H]([C@@H](C)O)NC(=O)[C@@H]2CCCN2C(=O)[C@@H]2CCCN2C1=O [3BP-3713, Hex-[Cys(tMeBn(InDOTA-AET))-Pro-Pro-Thr-Gln-Phe-AET]] (Hexanoyl-CPPTQF; linker 1-C via X11)	< 10 nM	< 10 nM	< 10 nM
CCCCCC(=O)N[C@H]1CSCc2cc(CSCCNC(=O)CN3CCN4CCN5CCN(CC3)CC(=O)[O][In]([O]C(=O)C4)[O]C(=O)C5)cc(c2)CSC[C@@H](C(=O)NCC(=O)O)NC(=O)[C@H](Cc2ccccc2)NC(=O)[C@H](CCC(N)=O)NC(=O)[C@H]([C@@H](C)O)NC(=O)[C@@H]2CCCN2C(=O)[C@@H]2CCCN2C1=O [3BP-3714, Hex-[Cys(tMeBn(InDOTA-AET))-Pro-Pro-Thr-Gln-Phe-Cys]-Gly-OH] (Hexanoyl-CPPTQFCG-OH; linker 1-7 via X7)	< 10 nM	< 10 nM	< 10 nM
CCCCCC(=O)N[C@H]1CSCc2cc(CSCCNC(=O)CN3CCN4CCN5CCN(CC3)CC(=O)[O][In]([O]C(=O)C4)[O]C(=O)C5)cc(c2)CSC[C@@H](C(=O)N(C)CC(=O)O)NC(=O)[C@H](Cc2ccccc2)NC(=O)[C@H](CCC(N)=O)NC(=O)[C@H]([C@@H](C)O)NC(=O)[C@@H]2CCCN2C(=O)[C@@H]2CCCN2C1=O [3BP-3715, Hex-[Cys(tMeBn(InDOTA-AET))-Pro-Pro-Thr-Gln-Phe-Cys]-Nmg-OH]	< 10 nM	< 10 nM	< 10 nM
CCCCCC(=O)N[C@H]1CSCc2cc(CSCCNC(=O)CN3CCN4CCN5CCN(CC3)CC(=O)[O][In]([O]C(=O)C4)[O]C(=O)C5)cc(c2)CSC[C@@H](C(=O)O)NC(=O)[C@H](Cc2ccccc2)NC(=O)[C@H](CCC(N)=O)NC(=O)[C@H]([C@@H](C)O)NC(=O)[C@@H]2CCCN2C(=O)CN(C)C1=O [3BP-3716, Hex-[Cys(tMeBn(InDOTA-AET))-Nmg-Pro-Thr-Gln-Phe-Cys]-OH] (Hexanoyl-C[Sar]PTQFC-OH; linker 1-7 via X7)	< 10 nM	< 10 nM	< 10 nM
CCCCCS(=O)(=O)N[C@H]1CSCc2cc(cc(CN3CCN(C(=O)CN4CCN5CCN6CCN(CC4)CC(=O)[O][In]([O]C(=O)C6)[O]C(=O)C5)CC3)c2)CSC[C@@H](C(=O)N[C@@H](CC(=O)O)C(N)=O)NC(=O)[C@H](Cc2ccccc2)NC(=O)[C@H](CCC(N)=O)NC(=O)[C@H]([C@@H](C)O)NC(=O)[C@@H]2CCCN2C(=O)[C@@H]2CCCN2C1=O [3BP-3717, Pentyl-SO2-[Cys(tMeBn(InDOTA-PP))-Pro-Pro-Thr-Gln-Phe-Cys]-Asp-NH2] (Pentanesulfonyl-CPPTQFCD-NH2; linker 1-7 via X4)	< 10 nM	< 10 nM	< 10 nM
CCCCCC(=O)N[C@H]1CSCc2cc(CSCCNC(=O)CN3CCN(CC(=O)O)CCN(CC(=O)O)CCN(CC(=O)O)CC3)cc(c2)CSC[C@@H](C(=O)NCCC(N)=O)NC(=O)[C@H](Cc2ccccc2)NC(=O)[C@H](CCC(N)=O)NC(=O)[C@H]([C@@H](C)O)NC(=O)[C@@H]2CCCN2C(=O)[C@@H]2CCCN2C1=O [3BP-3736, Hex-[Cys(tMeBn(DOTA-AET))-Pro-Pro-Thr-Gln-Phe-Cys]-Bal-NH2]	< 10 nM	< 10 nM	< 10 nM
CCCCCC(=O)N[C@H]1CSCc2cc(CSCCNC(=O)CN3CCN(CC(=O)O)CCN(CC(=O)O)CCN(CC(=O)O)CC3)cc(c2)CSC[C@@H](C(=O)N(C)CC(N)=O)NC(=O)[C@H](Cc2ccccc2)NC(=O)[C@H](CCC(N)=O)NC(=O)[C@H]([C@@H](C)O)NC(=O)[C@@H]2CCCN2C(=O)[C@@H]2CCCN2C1=O [3BP-3737, Hex-[Cys(tMeBn(DOTA-AET))-Pro-Pro-Thr-Gln-Phe-Cys]-Nmg-NH2]	< 10 nM	< 10 nM	< 10 nM
CCCCCC(=O)N[C@H]1CSCc2cc(CSCCNC(=O)CN3CCN4CCN5CCN(CC3)CC(=O)[O][Ga]([O]C(=O)C4)[O]C(=O)C5)cc(c2)CSC[C@@H](C(=O)O)NC(=O)[C@H](Cc2ccccc2)NC(=O)[C@H](CCC(N)=O)NC(=O)[C@H]([C@@H](C)O)NC(=O)[C@@H]2CCCN2C(=O)[C@@H]2CCCN2C1 [3BP-3949, Gallium-Complex of Hex-[Cys(tMeBn(DOTA-AET))-Pro-Pro-Thr-Gln-Phe-Cys]-OH]	< 10 nM	< 10 nM	< 10 nM
CCCCCC(=O)N[C@H]1CSCc2cc(CSCCNC(=O)C(CNCCN)CNCCN)cc(c2)CSC[C@@H](C(=O)O)NC(=O)[C@H](Cc2ccccc2)NC(=O)[C@H](CCC(N)=O)NC(=O)[C@H]([C@@H](C)O)NC(=O)[C@@H]2CCCN2C(=O)[C@@H]2CCCN2C1=O [3BP-4063, Hex-[Cys-(tMeBn(N4Ac-AET))-Pro-Pro-Thr-Gln-Phe-Cys]-OH]	< 10 nM	< 10 nM	< 10 nM
CCCCCC(=O)N[C@H]1CSCc2cc(CSCCNC(=O)COCCOCCNC(=O)C(CNCCN)CNCCN)cc(c2)CSC[C@@H](C(=O)O)NC(=O)[C@H](Cc2ccccc2)NC(=O)[C@H](CCC(N)=O)NC(=O)[C@H]([C@@H](C)O)NC(=O)[C@@H]2CCCN2C(=O)[C@@H]2CCCN2C1=O [3BP-4088, Hex-[Cys-(tMeBn(N4Ac-O2Oc-AET))-Pro-Pro-Thr-Gln-Phe-Cys]-OH]	< 10 nM	< 10 nM	< 10 nM
CCCC[C@H](NC(=O)CCC(=O)NCCCOCCOCCOCCCNC(=O)C(CNCCN)CNCCN)C(=O)N[C@H]1CSCc2cccc(c2)CSC[C@@H](C(=O)O)NC(=O)[C@H](Cc2ccccc2)NC(=O)[C@H](CCC(=O)O)NC(=O)[C@H]([C@@H](C)O)NC(=O)[C@@H]2CCCN2C(=O)[C@@H]2CCCN2C1=O [3BP-4161, N4Ac-Ttds-Nle-[Cys-(3MeBn)-Pro-Pro-Thr-Glu-Phe-Cys]-OH] ({X12-Suc}-[Nle]CPPTEFC-OH; linker 2-8 via mXylylene)	< 10 nM	< 10 nM	< 10 nM
CCCCCC(=O)N[C@H]1CSCc2cc(CSCCNC(=O)CC[C@H](C(=O)O)N3CCN(CC(=O)O)CN(CC(=O)O)C3)cc(c2)CSC[C@@H](C(=O)O)NC(=O)[C@H](Cc2ccccc2)NC(=O)[C@H](CCC(N)=O)NC(=O)[C@H]([C@@H](C)O)NC(=O)[C@@H]2CCCN2C(=O)[C@@H]2CCCN2C1=O [3BP-4162, Hex-[Cys-(tMeBn(NODAGA-AET))-Pro-Pro-Thr-Gln-Phe-Cys]-OH]	< 10 nM	< 10 nM	< 10 nM
CCCCCC(=O)N[C@H]1CSCc2cc(cc(CN3CCN(C(=O)C(CNCCN)CNCCN)CC3)c2)CSC[C@@H](C(=O)O)NC(=O)[C@H](Cc2ccccc2)NC(=O)[C@H](CCC(N)=O)NC(=O)[C@H]([C@@H](C)O)NC(=O)[C@@H]2CCCN2C(=O)[C@@H]2CCCN2C1=O [3BP-4168, Hex-[Cys-(tMeBn(N4Ac-PP))-Pro-Pro-Thr-Gln-Phe-Cys]-OH]	< 10 nM	< 10 nM	< 10 nM
CCCCCC(=O)N[C@H]1CSCc2cc(CSCCNC(=O)CCCN(C)C(=O)c3ccccc3-c3c4ccc(=N)c(S(=O)(=O)O)c-4oc4c(S(=O)(=O)O)c(N)ccc34)cc(c2)CSC[C@@H](C(=O)O)NC(=O)[C@H](Cc2ccccc2)NC(=O)[C@H](CCC(N)=O)NC(=O)[C@H]([C@@H](C)O)NC(=O)[C@@H]2CCCN2C(=O)[C@@H]2CCCN2C1=O [3BP-4182, Hex-[Cys(tMeBn(ATTO488-AET))-Pro-Pro-Thr-Gln-Phe-Cys]-OH]	10 to 79.4 nM	10 to 79.4 nM	10 to 79.4 nM
